Reference: patent US20230054857A1, “FLAVONOID COMPOSITIONS AND RELATED USES” (Firmenich SA, priority 2020, published 2023)

What was measured:
Type in all cases: physicochemical
[1] = Stability of supersaturated naringenin solution (60 ppm): crystallization onset and final concentration
Experimental: To assess stability performance, the solution concentration of rhoifolin was determined over time. At specific time points 4 g of the solution were sampled, filtered and mixed with 1 g of acetonitrile. The solution was injected into a Vanquish UHPLC from Thermo Scientific coupled with a UV detector. The column was an Accucore Vanquish C18+(1.5 μm, 2.1×100 mm), eluted with a mixture of acetonitrile and water at 0.3 mL/min. The elution protocol was as follows: 5% acetonitrile (3 minutes), followed by a gradient from 5% to 80% of acetonitrile in 10 minutes. The corresponding peak of Rhoifolin was integrated, and the concentration was calculated based on a previously established calibration curve. The onset of crystallization is expressed as the point where the solution concentration passes below 95% of its initial value of 100%. The value was obtained by algorithmic curve fitting. […] In this example, and throughout “d” refers to days. Aqueous solutions of Berry extract were prepared at a concentration of 25 ppm, 50 ppm, 75 ppm, and 100 ppm by dissolving dry Berry extract in 99 g of buffer solution (citrate buffer, 100 mM, pH 2.8, 0.2% sodium benzoate). Then 1 gram of stock solution of naringenin in PG at 6000 ppm was added and mixed quickly with the aqueous phase. The samples were stored at 8° C., and aliquots were removed over the course of 40 days. A control solution of naringenin without Berry extract was also prepared. […] Aqueous solutions of Berry extract were prepared at a concentration of 100 ppm by dissolving dry Berry extract in 99 g of buffer solution (citrate buffer, 100 mM, pH 2.8, 0.2% sodium benzoate) with various additional additives. Then 1 gram of stock solution of naringenin in PG at 6000 ppm was added and mixed quickly with the aqueous phase. The samples were stored at 8° C., and aliquots were removed over the course of five months. A control solution of naringenin without Berry extract or additional additive was also prepared. A solution with Berry extract, but no additional additive was also prepared. The concentration of the additional additives is 100 ppm in each case. […] Saponin is Quillaja P (Firmenich SA). Aqueous solutions of black rice extracts were prepared at a concentration of 100 ppm by dissolving dry black rice extract in 99 g of buffer solution (citrate buffer, 100 mM, pH 2.8, 0.2% sodium benzoate) with various additional additives. Then 1 gram of stock solution of naringenin in PG at 6000 ppm was added and mixed quickly with the aqueous phase. The samples were stored at 8° C., and aliquots were removed over the course of five months. A control solution of naringenin without black rice extract or additional additive was also prepared. A solution with black rice extract, but no additional additive was also prepared. The concentration of the additional additives is 100 ppm in each case. […] Saponin is Quillaja P (Firmenich SA). Aqueous solutions were prepared in 99 gram of buffer solution (citrate buffer, 100 mM, pH 2.8, 0.2% sodium benzoate) with various additives. Then 1 gram of stock solution of naringenin in PG at 6000 ppm was added and mixed quickly with the aqueous phase. The samples were stored at 8° C., and aliquots were removed over the course of 5 months. A control solution of naringenin without additive was prepared. The concentration of the additives is 100 ppm in each case. […] Saponin is Quillaja P (Firmenich SA). Aqueous solutions of Berry extract were prepared at a concentration of 25 ppm by dissolving dry Berry extract in 99 g of buffer solution (citrate buffer, 100 mM, pH 2.8, 0.2% sodium benzoate) with various amounts of added saponin. Then 1 gram of stock solution of naringenin in PG at 6000 ppm was added and mixed quickly with the aqueous phase. The samples were stored at 8° C., and aliquots were removed over the course of five months. A control solution of naringenin without Berry extract or additional additive was also prepared. A solution with Berry extract, but no additional additive was also prepared. […]

[2] = Stability of supersaturated phloretin solution (60 ppm): crystallization onset and final concentration
Experimental: To assess stability performance, the solution concentration of rhoifolin was determined over time. At specific time points 4 g of the solution were sampled, filtered and mixed with 1 g of acetonitrile. The solution was injected into a Vanquish UHPLC from Thermo Scientific coupled with a UV detector. The column was an Accucore Vanquish C18+(1.5 μm, 2.1×100 mm), eluted with a mixture of acetonitrile and water at 0.3 mL/min. The elution protocol was as follows: 5% acetonitrile (3 minutes), followed by a gradient from 5% to 80% of acetonitrile in 10 minutes. The corresponding peak of Rhoifolin was integrated, and the concentration was calculated based on a previously established calibration curve. The onset of crystallization is expressed as the point where the solution concentration passes below 95% of its initial value of 100%. The value was obtained by algorithmic curve fitting. […] In this example, and throughout “d” refers to days. Aqueous solutions of Berry extract were prepared at a concentration of 25 ppm, 50 ppm, 75 ppm, and 100 ppm by dissolving dry Berry extract in 99 g of buffer solution (citrate buffer, 100 mM, pH 2.8, 0.2% sodium benzoate). Then 1 gram of stock solution of phloretin in PG at 6000 ppm was added and mixed quickly with the aqueous phase. The samples were stored at 8° C., and aliquots were removed over the course of three months. A control solution of phloretin without Berry extract was also prepared. […] Aqueous solutions were prepared in 99 gram of buffer solution (citrate buffer, 100 mM, pH 2.8, 0.2% sodium benzoate) with saponin. Then 1 gram of stock solution of phloretin in PG at 6000 ppm was added and mixed quickly with the aqueous phase. The samples stored at 8° C., and aliquots were removed over the course of 5 months. A control solution of phloretin without saponin was prepared. The concentration of saponin was 100 ppm. […] Saponin is Quillaja P (Firmenich SA).

[3] = Stability of supersaturated rhoifolin solution (20 ppm): solution concentration over time by UHPLC, onset of crystallization; details: for 50% / Fin. Conc. (ppm) / Onset / 50% (d), days for 50% crystallization of rhoifolin: room temperature, 40 days
Experimental: Aqueous solutions of various anthocyanin extracts were prepared at concentrations of 100 ppm, 200 ppm, and 300 ppm by dissolving dry anthocyanin extract in 99 g of buffer solution (citrate buffer, 100 mM, pH 2.8, 0.2% sodium benzoate). Then 1 gram of stock solution of rhoifolin in propylene glycol (PG) at 2000 ppm was added and mixed quickly with the aqueous phase. The samples were left at room temperature, and aliquots were removed over the course of three months. A control solution of rhoifolin without anthocyanin was also prepared.
To assess stability performance, the solution concentration of rhoifolin was determined over time. At specific time points 4 g of the solution were sampled, filtered and mixed with 1 g of acetonitrile. The solution was injected into a Vanquish UHPLC from Thermo Scientific coupled with a UV detector. The column was an Accucore Vanquish C18+(1.5 μm, 2.1×100 mm), eluted with a mixture of acetonitrile and water at 0.3 mL/min. The elution protocol was as follows: 5% acetonitrile (3 minutes), followed by a gradient from 5% to 80% of acetonitrile in 10 minutes. The corresponding peak of Rhoifolin was integrated, and the concentration was calculated based on a previously established calibration curve. The onset of crystallization is expressed as the point where the solution concentration passes below 95% of its initial value of 100%. The value was obtained by algorithmic curve fitting. […] In this example, and throughout “d” refers to days.
Aqueous solutions of black rice extract were prepared at a concentration of 100 ppm by dissolving dry black rice extract in 99 g of buffer solution (citrate buffer, 100 mM, pH 2.8, 0.2% sodium benzoate) with various additional additives. Then 1 gram of stock solution of rhoifolin in PG at 2000 ppm was added and mixed quickly with the aqueous phase. The samples were left at room temperature, and aliquots were removed over the course of 40 days. A control solution of rhoifolin without black rice or additional additives was also prepared. A solution with black rice, but no additional additive was also prepared. The concentration of the additional additives is 100 ppm in each case. […] Saponin is Quillaja P (Firmenich SA).
Aqueous solutions were prepared in 99 gram of buffer solution (citrate buffer, 100 mM, pH 2.8, 0.2% sodium benzoate) with various additives. Then 1 gram of stock solution of rhoifolin in PG at 2000 ppm was added and mixed quickly with the aqueous phase. The samples were left at room temperature, and aliquots were removed over the course of 40 days. A control solution of rhoifolin without additive was prepared. The concentration of the additives is 100 ppm in each case. […] Saponin is Quillaja P (Firmenich SA).

[4] = Example 4 control: naringenin 60 ppm without Berry extract, pH 2.8, 8° C., 40 days
[5] = Example 5 control: naringenin 60 ppm without Berry extract or additive, 8° C., five months
[6] = Example 6 control: naringenin 60 ppm without black rice extract or additive, 8° C., five months
[7] = Example 7 control: naringenin 60 ppm without additive, 8° C., 5 months
[8] = Example 8 control: naringenin 60 ppm without Berry extract or additive, 8° C., five months
[9] = Example 9 control: naringenin 60 ppm without saponin, 8° C., five months
[10] = Example 10 control: phloretin 60 ppm without Berry extract, pH 2.8, 8° C., three months
[11] = Example 11 control: phloretin 60 ppm without saponin, 8° C., 5 months
[12] = rhoifolin 20 ppm + 100 ppm additive alone
[13] = rhoifolin 20 ppm + 100 ppm black rice extract + 100 ppm additive
[14] = naringenin 60 ppm + 100 ppm Berry extract + 100 ppm additive, 8° C., five months
[15] = naringenin 60 ppm + 100 ppm additive alone, 8° C., 5 months
[16] = naringenin 60 ppm + 100 ppm black rice extract + 100 ppm additive, 8° C., five months
[17] = Example 2 control: rhoifolin 20 ppm without black rice extract or additive
[18] = Example 3 control: rhoifolin 20 ppm without additive
[19] = control: rhoifolin 20 ppm without extract, pH 2.8, room temperature

For `O=C1C[C@@H](c2ccc(O)cc2)Oc2cc(O)cc(O)c21` [Naringenin, naringenin], the “Fin. Conc. (ppm)” value [1, 4] was 24.6 ppm, the “Onset” value [1, 4] was 0.3 days and the “Fin. Conc. (ppm)” value [1, 5] was 24.6 ppm. For the same compound, the “Onset” value [1, 5] was 0.3 days, the “Fin. Conc. (ppm)” value [1, 6] was 24.6 ppm and the “Onset” value [1, 6] was 0.3 days. For the same compound, the “Fin. Conc. (ppm)” value [1, 7] was 24.6 ppm, the “Onset” value [1, 7] was 0.3 days and the “Fin. Conc. (ppm)” value [1, 8] was 24.6 ppm. The “Onset” value [1, 8] was 0.3 days, the “Fin. Conc. (ppm)” value [1, 9] was 24.6 ppm and the “Onset” value [1, 9] was 0.3 days.
For `O=C(CCc1ccc(O)cc1)c1c(O)cc(O)cc1O` [Phloretin, phloretin], the “Fin. Conc. (ppm)” value [2, 10] was 33.8 ppm, the “Onset” value [2, 10] was 13.6 days and the “Fin. Conc. (ppm)” value [2, 11] was 33.8 ppm. The “Onset” value [2, 11] was 13.6 days.
In the case of `C=C1C[C@@]23CC[C@H]4[C@@](C)(CCC[C@@]4(C)C(=O)O[C@@H]4O[C@H](CO)[C@@H](O)[C@H](O)[C@H]4O)[C@@H]2CC[C@]1(O[C@@H]1O[C@H](CO)[C@@H](O)[C@H](O[C@@H]2O[C@H](CO)[C@@H](O)[C@H](O)[C@H]2O)[C@H]1O[C@@H]1O[C@H](CO)[C@@H](O)[C@H](O)[C@H]1O)C3` [Rebaudioside A, reference compound], the “50%” value [3, 12] is reported as 13.6 days, the “Fin. Conc. (ppm)” value [3, 12] is reported as 4.04 ppm and the “Onset” value [3, 12] is reported as 7.5 days. The “50% (d), days for 50% crystallization of rhoifolin” value [3, 13] was 18.8 days, the “Fin. Conc. (ppm)” value [3, 13] was 5.96 ppm and the “Onset” value [3, 13] was 10.8 days. For the same compound, the “Fin. Conc. (ppm)” value [1, 14] was 34.1 ppm, the “Onset” value [1, 14] was 15.8 days and the “Fin. Conc. (ppm)” value [1, 15] was 31.0 ppm. The “Onset” value [1, 15] was 7.5 days, the “Fin. Conc. (ppm)” value [1, 16] was 35.4 ppm and the “Onset” value [1, 16] was 18.3 days.
In the case of `C[C@@H]1O[C@@H](O[C@H]2[C@H](Oc3cc(O)c4c(=O)cc(-c5ccc(O)cc5)oc4c3)O[C@H](CO)[C@@H](O)[C@@H]2O)[C@H](O)[C@H](O)[C@H]1O` [Rhoifolin, rhoifolin], the “50% (d), days for 50% crystallization of rhoifolin” value [3, 17] is reported as 8.2 days, the “Fin. Conc. (ppm)” value [3, 17] is reported as 3.32 ppm and the “Onset” value [3, 17] is reported as 4.1 days. For the same compound, the “50%” value [3, 18] was 8.2 days, the “Fin. Conc. (ppm)” value [3, 18] was 3.32 ppm and the “Onset” value [3, 18] was 4.1 days. For the same compound, the “Onset (d) of crystallization” value ([3]; control: rhoifolin 20 ppm without anthocyanin extract, citrate buffer pH 2.8, room temperature) was 4.1 days, the “50% Rem (d), days when only 50% of initial rhoifolin remained in solution” value [3, 19] was 8.2 days and the “Fin. Conc. (ppm) of rhoifolin in solution” value [3, 19] was 3.3 ppm.
